Experimental data as given in patent publication US6525055B1, “Tricyclic phthalazine derivatives as phosphodiesterase 4 inhibitors” (Zambon Group S.p.A., priority 1998, dated 2003).

Biological target: PDE 4 enzyme
Experiment: PDE 4 enzyme inhibition (SPA)
Type: biochemical
Details: PDE 4 purified from human PMNs, cAMP 1 μM, 40 minutes at 30° C.
Excerpt: Evaluation of the PDE 4 Enzyme Inhibition a) Purification of Human Polymorphonucleate Leukocytes
The polymorphonucleate leukocytes (PMNs) were isolated from peripheral blood of healthy volunteers according to what described by Boyum A., Scand. J. Immunol., 1976, 5th suppl., 9). Shortly, the isolation of the PMNs was effected by Ficoll-Paque gradient centrifugation followed by sedimentation on dextrane and the erythrocyte contamination was eliminated by hypotonic lysis. […]
b) PDE 4 Enzyme Purification
The human PMNs were re-suspended in TRIS/HCl buffer (10 mM pH 7.8) containing MgCl2 (5 mM), EGTA (4 mM), mercaptoethanol (5 mM), TRlTON-X100 (1%), pepstatin A (1 μM), PMSF (100 μM) and leupeptin (1 μM), and homogenised by Polytron. […]
The enzyme activity was evaluated with an Amersham kit based on the SPA (Scintillation Proximity Assay) technique. […] The radioactivity due to the particles was measured in a […]. The results are expressed as percent activity versus the control present in each experiment. The IC50 values were calculated over 9 equidistant concentrations in logarithmic scale using a 4-parameters logistic function by software.

COc1ccc2c(Cc3c(Cl)cncc3Cl)nn3c(C)nnc3c2c1 [Compound 2, 6-(3,5-Dichloro-pyridin-4-ylmethyl)-9-methoxy-3-methyl-[1,2,4]-triazole-[3,4-a]-phthalazine]
IC50: 0.207 µM
